Bridge positions count the residues as written; N and C are the ends. Square brackets hold non-standard residues; d marks the D form. Peptide text beside a SMILES is read from it. * marks the point of attachment. Heptanoyl(6-Me) = CC(C)CCCCC(=O)*; Dab = NCC[C@H](N)C(=O)O; Dap = NC[C@H](N)C(=O)O
Experiments:
[1] = Nephrotoxicity assay: in vitro cytotoxicity of HK-2 cells by CCK-8 assay; assay type: cell-based; conditions: human, HK-2 cells (human renal), 72 h incubation with drug-containing medium
In short: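 Compounds in sterile water, diluted to final 500, 250, 200, 100, 50, 25 and 12.5 µg/mL, were applied for 72 h to human HK-2 kidney cells. Absorbance at 450 nm after 3 h CCK-8 gave viability against untreated wells, and IC50 came from logarithmic regression; three replicates.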

Healthy ICR mice = test: Acute toxicity test in healthy mice, single tail vein injection; assay type: in vivo; conditions: within 7 days
Procedure: (§1) Healthy ICR mice aged 5-6 weeks were selected, with 5-10 mice in each group, and administered via a single tail vein injection at an administration volume of 20 mL/kg. In the preliminary test, the drug dose concentrations that caused 100% mortality and no mortality in mice after a single intravenous injection were determined. Based on this dose range, 4-5 dose groups were set up, with a dose ratio of 1:0.5 to 1:0.8 between adjacent groups. The mortality of animals within 7 days after administration was recorded. According to the mortality rate of experimental animals in each group, the median lethal dose (LD50) of the test samples, i.e., the dose causing 50% mortality of the tested animals, was calculated by the Bliss method.

[2] = as above; assay type: in vivo; conditions: mouse, in vivo, iv; ICR mice, single tail vein injection, Bliss method
Procedure: as §1

[3] = tested on: Pseudomonas aeruginosa ATCC27853; test: In vivo antibacterial (protection) test in infected mice; conditions: infected ICR mice; for mortality rate: 7 days observation
Excerpt: Pseudomonas aeruginosa ATCC27853 was selected for the determination of in vivo antibacterial activity.
One day before infection, the test bacteria were inoculated onto the corresponding nutrient agar plates and cultured overnight. On the day of infection, single colonies grown on the plates were picked and suspended in sterile normal saline, and the suspension was mixed thoroughly to obtain the original bacterial solution. The bacterial solution was then adjusted to the required concentration with 5% dried yeast powder and prepared freshly prior to use.
Healthy ICR mice were randomly divided into groups, with 5 mice per group, half male and half female. Bacterial solutions of different dilutions were aspirated and injected intraperitoneally into mice at a volume of 0.5 mL per 20 g of body weight. The mortality of mice was recorded within 7 days after infection. The minimum bacterial dose causing 100% mortality in mice was defined as the minimum lethal dose (MLD), which was used as the infection dose for the in vivo protection test.
Drug administration was performed via tail vein injection at 2 h, 8 h, 24 h, and 30 h after infection, with a total of 4 administrations, and the administration volume was 20 mL/kg. For the preparation of drug solutions, Compound 7, together with the control drugs polymyxin B and meropenem, were dissolved in normal saline to the required concentrations for tail vein injection, and all solutions were prepared freshly prior to use.
In the preliminary test, the drug dose concentrations that caused 100% mortality and no mortality in mice after infection with the tested bacteria were determined. Based on this dose range, 4-5 dose groups were established, with a dose ratio of 1:0.5 to 1:0.8 between adjacent groups.
Mice were randomly grouped according to body weight, with 8 mice per group (half male and half female). Each mouse was intraperitoneally infected with the test bacterial solution at a volume of 0.5 mL per 20 g of body weight, followed by tail vein injection at 2 h, 8 h, 24 h, and 30 h after infection. Mice in the blank control group were not infected with bacterial solution but were only given an equal volume of vehicle at an administration volume of 20 mL/kg. The mortality of mice was observed and recorded for 7 consecutive days.
The minimum lethal bacterial concentration of Pseudomonas aeruginosa ATCC27853 for intraperitoneal infection in mice was 4.2 × 10^2 CFU/mL, which was used as the infection dose in the formal test.
Mice in the infection control group were intraperitoneally inoculated with Pseudomonas aeruginosa ATCC27853 bacterial solution at the MLD concentration ([…]). Infection symptoms began to appear 3-4 hours after inoculation, and all 8 animals died within 48 hours (8/8), with a mortality rate of 100%.

[4] = tail vein twice daily for 2 days, Bliss method

For `CC(C)CCCCC(=O)N[C@@H](CCN)C(=O)N[C@H](C(=O)N[C@@H](CN)C(=O)N[C@H]1CCNC(=O)[C@H]([C@@H](C)O)NC(=O)[C@H](CCN)NC(=O)[C@H](CCN)NC(=O)[C@H]([C@@H](C)O)NC(=O)[C@@H](Cc2ccccc2)NC(=O)[C@H](CCN)NC1=O)[C@@H](C)O` [Compound 7, 6-methylheptanoyl-Dab-Thr-Dap-ring(4-10)[Dab-Dab-D-Phe-Thr-Dab-Dab-Thr]] ({Heptanoyl(6-Me)}-[Dab]T[Dap][Dab][Dab][dF]T[Dab][Dab]T; lactam 4-C), the IC50 at 72 h [1] was > 500 µg/mL, the mortality rate (Healthy ICR mice; single tail vein injection 15.36 mg/kg) was 0% and the mortality rate (Healthy ICR mice; single tail vein injection 19.2 mg/kg) was 12.5%. It also gave a mortality rate (Healthy ICR mice; single tail vein injection 24 mg/kg) of 25%, a mortality rate (Healthy ICR mice; single tail vein injection 30 mg/kg) of 100% and an LD50 at 168 h [2] of 24.4 mg/kg. It also gave a mortality rate ([3]; 3.4 mg/kg tail vein twice daily for 2 days) of 100%, a mortality rate ([3]; 4.9 mg/kg tail vein twice daily for 2 days) of 87.5% and a mortality rate ([3]; 7 mg/kg tail vein twice daily for 2 days) of 37.5%. For the same molecule, the mortality rate ([3]; 10 mg/kg tail vein twice daily for 2 days) was 0%, the ED5 [3, 4] was 4.54 mg/kg and the ED50 [3, 4] was 6.38 mg/kg. It also gave an ED95 [3, 4] of 8.96 mg/kg.

Source: patent EP4725957A1, “GROUP OF CYCLIC ALKALINE LIPOPEPTIDE COMPOUNDS, AND PREPARATION METHOD THEREFOR AND USE THEREOF” (Institute of Medicinal Biotechnology, Chinese Academy of …, priority 2023, dated 2024)
